pIC50: −log10 of the molar value. Read-outs that look alike come from different tables or passages of the source.
Experiments:
human TLR9 = human TLR9 (Homo sapiens (Human), UniProt Q9NR96); assay: TLR9 inhibition reporter assay (HEK-Blue SEAP); settings: read-out: TLR9 IC50;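 note: SEAP driven by an IFN-β minimal promoter with NF-κB and AP-1 sites, read after 22 h, compounds dosed 0.05 nM–50 µM, inhibition scaled between agonist plus DMSO and reference-inhibitor wells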
human TLR7 = human TLR7 (Homo sapiens (Human), UniProt Q9NYK1); assay: TLR7 inhibition reporter assay (HEK-Blue SEAP); format: cell-based
human TLR8 = human TLR8 (Homo sapiens (Human), UniProt Q9NR97); assay: TLR8 inhibition reporter assay (HEK-Blue SEAP); settings: read-out: TLR8 IC50;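 note: SEAP driven by IFN-β minimal promoter carrying NF-κB and AP-1 sites, compounds dosed 0.05 nM to 50 µM for 22 h, inhibition scaled between agonist-plus-DMSO and reference-inhibitor wells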
[1] = HEK-Blue cells overexpressing human TLR9, ODN2006 5 nM stimulation, SEAP reporter
[2] = HEK-Blue cells overexpressing human TLR7, gardiquimod 7.5 μM stimulation, SEAP reporter
[3] = HEK-Blue cells overexpressing human TLR8, R848 15.9 μM stimulation, SEAP reporter
[4] = HEK-Blue cells overexpressing human TLR9, SEAP reporter, ODN2006 5 nM
[5] = HEK-Blue cells overexpressing human TLR7, SEAP reporter, gardiquimod 7.5 μM
[6] = HEK-Blue cells overexpressing human TLR8, SEAP reporter, R848 15.9 μM

Chain of human TLR9 (Q9NR96 26-1032): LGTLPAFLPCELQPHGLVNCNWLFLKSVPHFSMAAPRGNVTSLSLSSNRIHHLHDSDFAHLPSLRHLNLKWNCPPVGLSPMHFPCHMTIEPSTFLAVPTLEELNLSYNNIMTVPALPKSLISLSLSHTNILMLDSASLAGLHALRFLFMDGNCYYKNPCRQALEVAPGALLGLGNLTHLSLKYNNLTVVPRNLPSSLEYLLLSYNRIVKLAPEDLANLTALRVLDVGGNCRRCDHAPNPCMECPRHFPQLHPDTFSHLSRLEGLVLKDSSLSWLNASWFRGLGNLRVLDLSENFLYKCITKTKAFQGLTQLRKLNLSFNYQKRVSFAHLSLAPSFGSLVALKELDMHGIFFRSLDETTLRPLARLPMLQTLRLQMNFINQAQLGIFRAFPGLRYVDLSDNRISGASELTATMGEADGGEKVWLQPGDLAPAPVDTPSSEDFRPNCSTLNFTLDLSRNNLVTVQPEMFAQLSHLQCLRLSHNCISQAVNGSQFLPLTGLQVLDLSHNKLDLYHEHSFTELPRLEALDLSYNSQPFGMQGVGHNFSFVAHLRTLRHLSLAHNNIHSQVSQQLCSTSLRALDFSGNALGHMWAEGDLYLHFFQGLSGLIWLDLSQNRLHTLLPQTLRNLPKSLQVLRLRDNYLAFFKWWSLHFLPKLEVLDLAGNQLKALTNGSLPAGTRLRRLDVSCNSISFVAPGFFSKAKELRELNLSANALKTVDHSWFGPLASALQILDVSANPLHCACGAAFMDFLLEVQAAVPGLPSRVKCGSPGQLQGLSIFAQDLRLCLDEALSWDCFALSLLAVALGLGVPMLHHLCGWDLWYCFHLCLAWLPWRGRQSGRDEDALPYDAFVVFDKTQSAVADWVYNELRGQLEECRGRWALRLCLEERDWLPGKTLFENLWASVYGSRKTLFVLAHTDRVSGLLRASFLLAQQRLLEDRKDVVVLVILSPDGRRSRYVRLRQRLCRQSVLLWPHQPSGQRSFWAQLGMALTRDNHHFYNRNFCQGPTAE
Chain of human TLR7 (Q9NYK1 27-1049): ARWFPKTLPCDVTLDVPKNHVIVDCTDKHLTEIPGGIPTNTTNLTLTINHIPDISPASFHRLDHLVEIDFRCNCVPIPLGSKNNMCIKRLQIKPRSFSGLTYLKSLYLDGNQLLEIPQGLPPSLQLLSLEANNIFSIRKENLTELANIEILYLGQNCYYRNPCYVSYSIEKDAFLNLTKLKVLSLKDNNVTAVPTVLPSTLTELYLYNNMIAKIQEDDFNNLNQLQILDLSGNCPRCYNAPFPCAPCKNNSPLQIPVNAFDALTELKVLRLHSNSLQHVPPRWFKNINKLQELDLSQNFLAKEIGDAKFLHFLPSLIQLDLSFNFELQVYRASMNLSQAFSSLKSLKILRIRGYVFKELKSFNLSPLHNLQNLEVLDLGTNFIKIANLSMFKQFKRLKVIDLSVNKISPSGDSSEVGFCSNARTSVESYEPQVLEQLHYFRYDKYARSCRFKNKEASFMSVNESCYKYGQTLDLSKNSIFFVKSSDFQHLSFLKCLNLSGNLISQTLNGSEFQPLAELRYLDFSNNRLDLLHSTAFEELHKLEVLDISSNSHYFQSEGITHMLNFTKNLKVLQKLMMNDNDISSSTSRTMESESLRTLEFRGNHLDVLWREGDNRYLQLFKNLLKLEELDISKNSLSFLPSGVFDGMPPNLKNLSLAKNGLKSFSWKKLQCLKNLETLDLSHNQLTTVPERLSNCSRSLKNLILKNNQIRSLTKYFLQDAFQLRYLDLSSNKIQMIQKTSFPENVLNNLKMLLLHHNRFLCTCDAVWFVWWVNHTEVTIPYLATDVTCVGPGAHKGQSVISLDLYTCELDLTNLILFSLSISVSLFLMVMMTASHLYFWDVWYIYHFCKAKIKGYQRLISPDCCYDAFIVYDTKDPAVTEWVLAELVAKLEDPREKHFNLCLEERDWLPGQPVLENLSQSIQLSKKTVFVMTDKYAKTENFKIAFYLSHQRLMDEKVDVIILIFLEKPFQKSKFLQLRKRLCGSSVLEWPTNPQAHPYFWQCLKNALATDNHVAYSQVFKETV
Chain of human TLR8 (Q9NR97 27-1041): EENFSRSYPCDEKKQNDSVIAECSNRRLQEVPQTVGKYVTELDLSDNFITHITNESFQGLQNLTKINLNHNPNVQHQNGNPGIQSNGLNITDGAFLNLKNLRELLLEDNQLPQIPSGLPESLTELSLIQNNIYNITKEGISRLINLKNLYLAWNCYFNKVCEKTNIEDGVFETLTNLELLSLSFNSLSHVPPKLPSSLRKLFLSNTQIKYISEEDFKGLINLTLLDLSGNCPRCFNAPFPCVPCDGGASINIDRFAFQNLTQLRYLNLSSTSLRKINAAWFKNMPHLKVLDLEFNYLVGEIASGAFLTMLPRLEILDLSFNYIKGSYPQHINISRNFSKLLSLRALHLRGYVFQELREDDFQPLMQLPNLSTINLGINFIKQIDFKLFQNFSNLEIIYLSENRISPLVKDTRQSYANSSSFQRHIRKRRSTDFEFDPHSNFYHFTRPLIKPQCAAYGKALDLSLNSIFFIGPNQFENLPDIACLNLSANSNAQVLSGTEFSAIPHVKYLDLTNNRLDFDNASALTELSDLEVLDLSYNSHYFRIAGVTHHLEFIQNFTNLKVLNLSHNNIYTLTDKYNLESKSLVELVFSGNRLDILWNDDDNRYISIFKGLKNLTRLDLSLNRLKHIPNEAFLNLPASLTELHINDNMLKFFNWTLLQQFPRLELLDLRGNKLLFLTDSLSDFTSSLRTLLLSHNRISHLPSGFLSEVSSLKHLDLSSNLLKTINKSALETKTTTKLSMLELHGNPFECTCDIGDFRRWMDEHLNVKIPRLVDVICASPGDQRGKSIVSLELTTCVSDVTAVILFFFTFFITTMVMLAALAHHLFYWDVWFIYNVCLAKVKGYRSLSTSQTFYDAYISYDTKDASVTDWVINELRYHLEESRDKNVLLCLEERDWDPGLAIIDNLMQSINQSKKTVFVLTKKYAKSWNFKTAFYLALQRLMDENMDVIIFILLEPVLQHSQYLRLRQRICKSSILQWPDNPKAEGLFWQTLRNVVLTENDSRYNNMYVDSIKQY

Compound | pIC50 (human TLR9; [1]) | pIC50 (human TLR7; [2]) | pIC50 (human TLR8; [3]) | pIC50 (human TLR9; [4]) | pIC50 (human TLR7; [5]) | pIC50 (human TLR8; [6])
Cc1c(-c2[nH]c3ccc(C4CCC(N5CC(F)(F)C5)CC4)nc3c2C(C)C)cn2ncnc2c1C (stereo not drawn) [Example 370] | < 4.30 | 8.07 | 7.64 | – | – | –
C#CCNC1CCC(c2ccc3[nH]c(-c4cn5ncnc5c(C)c4C)c(C(C)C)c3n2)CC1 (stereo not drawn) [Example 371] | 5.36 | 8.22 | 7.85 | – | – | –
Cc1c(-c2[nH]c3ccc(C4CCC(N5CCC[C@@H]5CO)CC4)nc3c2C(C)C)cn2ncnc2c1C (stereo partly drawn) [Example 372] | 5.83 | 8.49 | 8.12 | – | – | –
Cc1c(-c2[nH]c3ccc(C4CCC(NCCC(F)(F)F)CC4)nc3c2C(C)C)cn2ncnc2c1C (stereo not drawn) [Example 373] | 5.71 | 8.07 | 8.08 | – | – | –
Cc1c(-c2[nH]c3ccc(C4CCC(N5CC(F)(F)C5)CC4)nc3c2C(C)C)cn2ncnc2c1C (stereo not drawn) [Example 374] | 4.67 | 7.44 | 6.73 | – | – | –
C#CCNC1CCC(c2ccc3[nH]c(-c4cn5ncnc5c(C)c4C)c(C(C)C)c3n2)CC1 (stereo not drawn) [Example 375] | 5.57 | 9.06 | 8.36 | – | – | –
Cc1c(-c2[nH]c3ccc(C4CCC(NCCC(F)(F)F)CC4)nc3c2C(C)C)cn2ncnc2c1C (stereo not drawn) [Example 376] | 5.99 | 9.15 | 8.92 | – | – | –
Cc1c(-c2[nH]c3ccc(C4CCC(N5CCC[C@@H]5CO)CC4)nc3c2C(C)C)cn2ncnc2c1C (stereo partly drawn) [Example 377] | 6.12 | 8.68 | 8.66 | – | – | –
CCN(CC)C1CCC(c2ccc3[nH]c(-c4cn5ncnc5c(C)c4C)c(C(C)C)c3n2)CC1 (stereo not drawn) [Example 378] | 5.79 | 8.80 | 8.34 | – | – | –
Cc1c(-c2[nH]c3ccc(C4CCC(NCCO)CC4)nc3c2C(C)C)cn2ncnc2c1C (stereo not drawn) [Example 379] | 6.04 | 8.59 | 8.33 | – | – | –
Cc1c(-c2[nH]c3ccc(C4CCC(N(C)C5CC5)CC4)nc3c2C(C)C)cn2ncnc2c1C (stereo not drawn) [Example 380] | 5.73 | 8.85 | 8.80 | – | – | –
Cc1c(-c2[nH]c3ccc(C4CCC(N5CCC(F)(F)CC5)CC4)nc3c2C(C)C)cn2ncnc2c1C (stereo not drawn) [Example 381] | 5.09 | 8.43 | 8.26 | – | – | –
Cc1c(-c2[nH]c3ccc(C4CCC(N5CCS(=O)(=O)CC5)CC4)nc3c2C(C)C)cn2ncnc2c1C (stereo not drawn) [Example 382] | < 4.30 | 8.11 | 7.66 | – | – | –
Cc1c(-c2[nH]c3ccc(C4CCC(N5CCS(=O)(=O)CC5)CC4)nc3c2C(C)C)cn2ncnc2c1C (stereo not drawn) [Example 383] | < 4.30 | 7.48 | 6.78 | – | – | –
Cc1c(-c2[nH]c3ccc(C4CCC(NCCC#N)CC4)nc3c2C(C)C)cn2ncnc2c1C (stereo not drawn) [Example 384] | 5.82 | 7.89 | 7.60 | – | – | –
Cc1c(-c2[nH]c3ccc(C4CCC(N5CCC(F)(F)CC5)CC4)nc3c2C(C)C)cn2ncnc2c1C (stereo not drawn) [Example 385] | 4.95 | 7.66 | 7.34 | – | – | –
Cc1c(-c2[nH]c3ccc(C4CCC(N5CCC5)CC4)nc3c2C(C)C)cn2ncnc2c1C (stereo not drawn) [Example 386] | 5.84 | 8.82 | 8.38 | – | – | –
Cc1c(-c2[nH]c3ccc(C4CCC(N(C)C5CC5)CC4)nc3c2C(C)C)cn2ncnc2c1C (stereo not drawn) [Example 387] | 5.26 | 8.14 | 7.72 | – | – | –
CCN(C)C1CCC(c2ccc3[nH]c(-c4cn5ncnc5c(C)c4C)c(C(C)C)c3n2)CC1 (stereo not drawn) [Example 388] | 6.05 | 9.06 | 8.66 | – | – | –
COCCN(C)C1CCC(c2ccc3[nH]c(-c4cn5ncnc5c(C)c4C)c(C(C)C)c3n2)CC1 (stereo not drawn) [Example 389] | 6.03 | 9.35 | 8.80 | – | – | –
CCN(C)C1CCC(c2ccc3[nH]c(-c4cn5ncnc5c(C)c4C)c(C(C)C)c3n2)CC1 (stereo not drawn) [Example 390] | 5.51 | 8.80 | 8.12 | – | – | –

Compound | pIC50 (human TLR9; [1]) | pIC50 (human TLR7; [2]) | pIC50 (human TLR8; [3]) | pIC50 (human TLR9; [4]) | pIC50 (human TLR7; [5]) | pIC50 (human TLR8; [6])
COCCN(C)C1CCC(c2ccc3[nH]c(-c4cn5ncnc5c(C)c4C)c(C(C)C)c3n2)CC1 (stereo not drawn) [Example 391] | 5.61 | 8.59 | 7.85 | – | – | –
Cc1c(-c2[nH]c3ccc(C4CCC(N5CCC[C@H]5CO)CC4)nc3c2C(C)C)cn2ncnc2c1C (stereo partly drawn) [Example 392] | 5.76 | 8.49 | 8.21 | – | – | –
Cc1c(-c2[nH]c3ccc(C4CCC(N5CCC[C@H]5CO)CC4)nc3c2C(C)C)cn2ncnc2c1C (stereo partly drawn) [Example 393] | 6.44 | 9.33 | 8.89 | – | – | –
Cc1ncc(CN(C)C2CCC(c3ccc4[nH]c(-c5cn6ncnc6c(C)c5C)c(C(C)C)c4n3)CC2)cn1 (stereo not drawn) [Example 394] | 5.85 | 8.85 | 8.82 | – | – | –
COc1ncc(CN(C)C2CCC(c3ccc4[nH]c(-c5cn6ncnc6c(C)c5C)c(C(C)C)c4n3)CC2)cn1 (stereo not drawn) [Example 395] | – | – | – | 5.79 | 8.13 | 8.00
Cc1c(-c2[nH]c3ccc(C4CCC(N(C)C(=O)CN(C)C)CC4)nc3c2C(C)C)cn2ncnc2c1C (stereo not drawn) [Example 396] | – | – | – | 5.82 | 8.77 | 7.77
Cc1c(-c2[nH]c3ccc(C4CCC(N(C)Cc5c[nH]nn5)CC4)nc3c2C(C)C)cn2ncnc2c1C (stereo not drawn) [Example 397] | – | – | – | 5.62 | 8.20 | 8.00
Cc1c(-c2[nH]c3ccc(C4CCC(N(C)CC(N)=O)CC4)nc3c2C(C)C)cn2ncnc2c1C (stereo not drawn) [Example 398] | – | – | – | 5.39 | 8.42 | 7.77
CNC(=O)CN(C)C1CCC(c2ccc3[nH]c(-c4cn5ncnc5c(C)c4C)c(C(C)C)c3n2)CC1 (stereo not drawn) [Example 400] | – | – | – | 5.81 | 9.13 | 8.54
Cc1c(-c2[nH]c3ccc(C4CCC(N(C)C5COC5)CC4)nc3c2C(C)C)cn2ncnc2c1C (stereo not drawn) [Example 401] | – | – | – | 5.24 | 8.24 | 8.19
Cc1ncc(CN(C)C2CCC(c3ccc4[nH]c(-c5cn6ncnc6c(C)c5C)c(C(C)C)c4n3)CC2)cn1 (stereo not drawn) [Example 402] | – | – | – | 5.29 | 7.51 | 7.37
CNC(=O)CN(C)C1CCC(c2ccc3[nH]c(-c4cn5ncnc5c(C)c4C)c(C(C)C)c3n2)CC1 (stereo not drawn) [Example 403] | – | – | – | 5.37 | 8.11 | 7.36
Cc1c(-c2[nH]c3ccc(C4CCC(N(C)C(=O)CN(C)C)CC4)nc3c2C(C)C)cn2ncnc2c1C (stereo not drawn) [Example 404] | – | – | – | 5.81 | 8.42 | 8.03
COc1ncc(CN(C)C2CCC(c3ccc4[nH]c(-c5cn6ncnc6c(C)c5C)c(C(C)C)c4n3)CC2)cn1 (stereo not drawn) [Example 405] | – | – | – | 5.85 | 8.44 | 8.60
Cc1c(-c2[nH]c3ccc(C4CCC(N(C)CC(N)=O)CC4)nc3c2C(C)C)cn2ncnc2c1C (stereo not drawn) [Example 406] | – | – | – | 5.83 | 8.85 | 8.52
Cc1c(-c2[nH]c3ccc(C4CCC(N5CCCC5)CC4)nc3c2C(C)C)cn2ncnc2c1C (stereo not drawn) [Example 407] | – | – | – | 5.61 | 8.14 | 8.07
Cc1c(-c2[nH]c3ccc(C4CCC(N(C)CC(=O)N(C)C)CC4)nc3c2C(C)C)cn2ncnc2c1C (stereo not drawn) [Example 408] | – | – | – | 5.19 | 7.74 | 7.37
Cc1c(-c2[nH]c3ccc(C4CCC(NCCO)CC4)nc3c2C(C)C)cn2ncnc2c1C (stereo not drawn) [Example 409] | – | – | – | 6.26 | 8.77 | 8.80
Cc1c(-c2[nH]c3ccc(C4CCC(N(C)CC(=O)N(C)C)CC4)nc3c2C(C)C)cn2ncnc2c1C (stereo not drawn) [Example 410] | – | – | – | 5.31 | 8.30 | 8.19
CCN(CC)C1CCC(c2ccc3[nH]c(-c4cn5ncnc5c(C)c4C)c(C(C)C)c3n2)CC1 (stereo not drawn) [Example 411] | – | – | – | 5.64 | 8.20 | 8.10

Reference: patent US10544143B2, “4-azaindole compounds” (BRISTOL-MYERS SQUIBB COMPANY, priority 2017, dated 2020)
